Converted amounts (≈) assume the structure as drawn. Structures can show the parent of a compound that is named as a salt. Where two headings read alike, the source gives them in different places.
Tests used:
[1] = biological target: T1, SARS‐CoV‐2 RdRp complex (nsp12, nsp7, nsp8) (Severe acute respiratory syndrome coronavirus 2, UniProt P0DTD1); design: method as in PMID 39140451; settings: at 10 μM concentration of screened compound; ref [10]; cited from earlier work
[2] = biological target: T1, SARS‐CoV‐2 RdRp complex (nsp12, nsp7, nsp8); experiment: biochemical; assay type: biochemical; settings: for remaining activity at 10 µM: read-out: RA ± SD (residual activity of RdRp), at 10 μM concentration of screened compounds, AUC with compound / AUC of noninhibited reaction
SARS‐CoV‐2 = experiment: microbe, parasite or virus in culture; assay type: cell-based
in vitro = settings: human
Experimental: Cytotoxicity was evaluated by incubating the same two‐fold serial dilutions of each compound with Calu‐3 cells as above but without the virus. Following 3 days of incubation at 37 °C in 5% CO2, the cell viability was determined by the addition of XTT solution as above. The compound cytotoxic concentrations resulting in a 50% reduction of absorbance (CC50) were calculated from plots of the percentage of absorbance versus log10 of drug concentration as above.

Kinetic solubility = settings: for kinetic solubility: as restated in Conclusions
[3] = Severe acute respiratory syndrome coronavirus 2, Calu‐3 cells infected with SARS‐CoV‐2, concentration required to reduce viral cytopathic effect by 50%, read-out: EC50

SMILES | remaining activity at 10 µM [2] | EC50 (SARS‐CoV‐2; [3]) | CC50 at 3 days (in vitro) | solubility kinetic (Kinetic solubility; kinetic from dmso stock) | other results
O=C(Nc1cc(Cl)cc(Cl)c1)Nc1cccc(C(F)(F)F)c1 [Compound 1, 1‐(3,5‐dichlorophenyl)‐3‐(3‐(trifluoromethyl)phenyl)urea] |  |  |  |  | RA (residual activity of RdRp) [1]: 45%
FC(F)(F)c1ccc2nc(-c3nc4cc(Cl)c(Cl)cc4[nH]3)[nH]c2c1 [Compound 2] |  |  |  |  | RA (residual activity of RdRp) [1]: 43 ± 6%
O=C(Nc1cccc(C(F)(F)F)c1)Nc1ccc(Cl)cc1Cl [Compound 9, 1‐(2,4‐Dichlorophenyl)‐3‐(3‐(Trifluoromethyl)Phenyl)Urea] | 64 ± 12% | > 6.9 µM | 6.9 ± 0.94 µM |  | solubility kinetic (Kinetic solubility): < 2 µM
O=C(Nc1cccc(C(F)(F)F)c1)Nc1c(Cl)cccc1Cl [Compound 10, 1‐(2,6‐Dichlorophenyl)‐3‐(3‐(Trifluoromethyl)Phenyl)Urea] | 100% |  |  |  | 
O=C(Nc1ccc(C(F)(F)F)cc1)Nc1cc(Cl)cc(Cl)c1 [Compound 13, 1‐(3,5‐Dichlorophenyl)‐3‐(4‐(Trifluoromethyl)Phenyl)Urea] | 34 ± 14% | > 0.29 µM | 0.29 ± 0.03 µM | < 2.1 µM | 
O=C(Nc1cc(Cl)cc(Cl)c1)Nc1ccccc1C(F)(F)F [Compound 14, 1‐(3,5‐Dichlorophenyl)‐3‐(2‐(Trifluoromethyl)Phenyl)Urea] | 100% |  |  |  | 
O=C(Nc1ccc(C(F)(F)F)nc1)Nc1cc(Cl)cc(Cl)c1 [Compound 15, 1‐(3,5‐Dichlorophenyl)‐3‐(6‐(Trifluoromethyl)Pyridin‐3‐Yl)Urea] | 35 ± 9% | > 1.3 µM | 1.3 ± 0.13 µM |  | 
O=C(Nc1cc(Cl)cc(Cl)c1)Nc1ccc(C(F)(F)F)cn1 [Compound 16, 1‐(3,5‐Dichlorophenyl)‐3‐(5‐(Trifluoromethyl)Pyridin‐2‐Yl)Urea] | 100% |  |  |  | 
O=C(Nc1cc(Cl)cc(Cl)c1)Nc1ccc(C(F)(F)F)nn1 [Compound 17, 1‐(3,5‐Dichlorophenyl)‐3‐(6‐(Trifluoromethyl)Pyridazin‐3‐Yl)Urea] | 68 ± 9% |  |  |  | 
O=C(Nc1cnc(C(F)(F)F)nc1)Nc1cc(Cl)cc(Cl)c1 [Compound 18, 1‐(3,5‐Dichlorophenyl)‐3‐(2‐(Trifluoromethyl)Pyrimid‐5‐Yl)Urea] | 42 ± 10% | > 1.1 µM | 1.1 ± 0.11 µM | 27 ± 6 µM (≈ 9.48 µg/mL) | effect in combination with remdesivir [2]: potentiates the effect of remdesivir; mode of inhibition ([2]; versus ATP, enzymatic study): competitive inhibitor of ATP; kinetic solubility (Kinetic solubility): 27 µM/L
O=C(Nc1cc(Cl)cc(Cl)c1)Nc1cnc(C(F)(F)F)cn1 [Compound 19, 1‐(3,5‐Dichlorophenyl)‐3‐(5‐(Trifluoromethyl)Pyrazin‐2‐Yl)Urea] | 75 ± 8% |  |  |  | 
NC(=O)c1ccc(NC(=O)Nc2cc(Cl)cc(Cl)c2)cc1C(F)(F)F [Compound 24, 4‐(3‐(3,5‐Dichlorophenyl)Ureido)‐2‐(Trifluoromethyl)Benzamide] | ~65% | > 14 µM | 14 ± 1 µM | 32.5 ± 0.8 µM (≈ 12.7 µg/mL) | kinetic solubility (Kinetic solubility): 32.5 µM L^−1
NC(=O)c1ccc(C(F)(F)F)cc1NC(=O)Nc1cc(Cl)cc(Cl)c1 [Compound 25, 2‐(3‐(3,5‐Dichlorophenyl)Ureido)‐4‐(Trifluoromethyl)Benzamide] | 100% |  |  |  | 
NC(=O)c1c(Cl)cc(Cl)cc1NC(=O)Nc1cccc(C(F)(F)F)c1 [Compound 28, 2,4‐Dichloro‐6‐(3‐(3‐(Trifluoromethyl)Phenyl)Ureido)Benzamide] | 100% |  |  |  | 
Cl.O=C(Nc1cc(Cl)cc(Cl)c1)Nc1ccc(CN2CCCC2)c(C(F)(F)F)c1 [Compound 38, 1‐(3,5‐Dichlorophenyl)‐3‐(4‐(Pyrrolidin‐1‐Ylmethyl)‐3‐(Trifluoromethyl)Phenyl)Urea Hydrochloride] | 46 ± 2% | > 19 µM | 19 ± 1 µM | < 2 µM | 
Cl.O=C(Nc1cc(Cl)cc(Cl)c1)Nc1ccc(CN2CCOCC2)c(C(F)(F)F)c1 [Compound 39, 1‐(3,5‐Dichlorophenyl)‐3‐(4‐(Morpholinomethyl)‐3‐(Trifluoromethyl)Phenyl)Urea Hydrochloride] | 36 ± 7% | > 8.4 µM | 8.4 ± 1.1 µM | 4.2 ± 0.3 µM | kinetic solubility (Kinetic solubility): 4.2 µM L^−1

SMILES | remaining activity at 10 µM [2] | EC50 (SARS‐CoV‐2; [3]) | CC50 at 3 days (in vitro) | solubility kinetic (Kinetic solubility; kinetic from dmso stock) | other results
CN1CCN(Cc2ccc(NC(=O)Nc3cc(Cl)cc(Cl)c3)cc2C(F)(F)F)CC1.Cl [Compound 40, 1‐(3,5‐Dichlorophenyl)‐3‐(4‐((4‐Methylpiperazin‐1‐Yl)Methyl)‐3‐(Trifluoromethyl)Phenyl)Urea Hydrochloride] | ~65% | > 13 µM | 13 ± 0.8 µM | 43.5 ± 0.8 µM | kinetic solubility (Kinetic solubility): 43.5 µM L^−1
NCc1ccc(NC(=O)Nc2cc(Cl)cc(Cl)c2)cc1C(F)(F)F [Compound 41, 1‐(4‐(Aminomethyl)‐3‐(Trifluoromethyl)Phenyl)‐3‐(3,5‐Dichlorophenyl)Urea Hydrochloride] | 78 ± 5% |  |  |  | 
Cl.O=C(Nc1cc(Cl)cc(Cl)c1)Nc1ccc(C(F)(F)F)c(CN2CCCC2)c1 [Compound 46, 1‐(3,5‐Dichlorophenyl)‐3‐(3‐(Pyrrolidin‐1‐Ylmethyl)‐4‐(Trifluoromethyl)Phenyl)Urea Hydrochloride] | 67 ± 7% | > 15 µM | ~15 µM | 11.9 ± 0.4 µM | 
Cl.O=C(Nc1cc(Cl)cc(Cl)c1)Nc1ccc(C(F)(F)F)c(CN2CCOCC2)c1 [Compound 47, 1‐(3,5‐Dichlorophenyl)‐3‐(3‐(Morpholinomethyl)‐4‐(Trifluoromethyl)Phenyl)Urea Hydrochloride] | 65 ± 5% | > 5.3 µM | 5.3 ± 0.48 µM | < 2 µM | 
CN1CCN(Cc2cc(NC(=O)Nc3cc(Cl)cc(Cl)c3)ccc2C(F)(F)F)CC1 [Compound 48, 1‐(3,5‐Dichlorophenyl)‐3‐(3‐((4‐Methylpiperazin‐1‐Yl)Methyl)‐4‐(Trifluoromethyl)Phenyl)Urea Hydrochloride] | 100% |  |  |  | 
CN1CCN(Cc2c(Cl)cc(NC(=O)Nc3cccc(C(F)(F)F)c3)cc2Cl)CC1 [Compound 54, 1‐(3,5‐Dichloro‐4‐((4‐Methylpiperazin‐1‐Yl)Methyl)Phenyl)‐3‐(3‐(Trifluoromethyl)Phenyl)Urea Hydrochloride] | 79 ± 5% |  |  |  | 
COCCNCc1ccc(NC(=O)Nc2cc(Cl)cc(Cl)c2)cc1C(F)(F)F [Compound 58, 1‐(3,5‐Dichlorophenyl)‐3‐(4‐(((2‐Methoxyethyl)Amino)Methyl)‐3‐(Trifluoromethyl)Phenyl)Urea Hydrochloride] | 100% |  |  |  | 
O=C(Nc1cc(Cl)cc(Cl)c1)Nc1ccc(CNCCO)c(C(F)(F)F)c1 [Compound 59, 1‐(3,5‐Dichlorophenyl)‐3‐(4‐(((2‐Hydroxyethyl)Amino)Methyl)‐3‐(Trifluoromethyl)Phenyl)Urea Hydrochloride] | 76 ± 11% |  |  |  | 
COC(=O)CNCc1ccc(NC(=O)Nc2cc(Cl)cc(Cl)c2)cc1C(F)(F)F.Cl [Compound 61, Methyl (4‐(3‐(3,5‐Dichlorophenyl)Ureido)‐2‐(Trifluoromethyl)Benzyl)Glycinate Hydrochloride] | 43 ± 8% | > 8.4 µM | 8.4 ± 0.46 µM | 7 ± 0.6 µM | kinetic solubility (Kinetic solubility): 21 µM L^−1; increase in kinetic solubility compared with compound 39 (Kinetic solubility; relative to compound 39): 1.7 fold
O=C(O)CNCc1ccc(NC(=O)Nc2cc(Cl)cc(Cl)c2)cc1C(F)(F)F [Compound 62, Lithium (4‐(3‐(3,5‐Dichlorophenyl)Ureido)‐2‐(Trifluoromethyl)Benzyl)Glycinate] | 70 ± 10% |  |  |  | 
Cl.O=C(Nc1cc(Cl)cc(Cl)c1)Nc1ccc(CN2CCS(=O)(=O)CC2)c(C(F)(F)F)c1 [Compound 68, 1‐(3,5‐Dichlorophenyl)‐3‐(4‐((1,1‐Dioxidothiomorpholino)Methyl)‐3‐(Trifluoromethyl)Phenyl)Urea Hydrochloride] | 37 ± 5% | > 5.9 µM | 5.9 ± 0.51 µM | 2.57 ± 0.04 µM | 
COC(=O)C1CN(Cc2ccc(NC(=O)Nc3cc(Cl)cc(Cl)c3)cc2C(F)(F)F)CCO1.Cl (stereo not drawn) [Compound 69, Methyl 4‐(4‐(3‐(3,5‐Dichlorophenyl)Ureido)‐2‐(Trifluoromethyl)Benzyl)Morpholine‐2‐Carboxylate Hydrochloride] | 42 ± 4% | > 34 µM | 34 ± 5.6 µM | < 2 µM | 
Cl.O=C1CN(Cc2ccc(NC(=O)Nc3cc(Cl)cc(Cl)c3)cc2C(F)(F)F)CCN1 [Compound 70, 1‐(3,5‐Dichlorophenyl)‐3‐(4‐((3‐Oxopiperazin‐1‐Yl)Methyl)‐3‐(Trifluoromethyl)Phenyl)Urea Hydrochloride] | 63 ± 7% | > 9.5 µM | 9.5 ± 0.28 µM | 11.2 ± 0.07 µM | 
O=C(Nc1cc(Cl)cc(Cl)c1)Nc1ccc(CN2CCOC(C(=O)[O-])C2)c(C(F)(F)F)c1.[Li+] (stereo not drawn) [Compound 71, Lithium 4‐(4‐(3‐(3,5‐Dichlorophenyl)Ureido)‐2‐(Trifluoromethyl)Benzyl)Morpholine‐2‐Carboxylate] | ~65% |  | 32 ± 0.77 µM | 71 ± 1 µM | EC50 (SARS‐CoV‐2; Severe acute respiratory syndrome coronavirus 2, Calu-3): > 32 µM; kinetic solubility (Kinetic solubility): 71 µM L^−1
Cl.NC(=O)C1CN(Cc2ccc(NC(=O)Nc3cc(Cl)cc(Cl)c3)cc2C(F)(F)F)CCO1 (stereo not drawn) [Compound 72, 4‐(4‐(3‐(3,5‐Dichlorophenyl)Ureido)‐2‐(Trifluoromethyl)Benzyl)Morpholine‐2‐Carboxamide Hydrochloride] | 52 ± 5% | > 12 µM | 12 ± 0.51 µM | 4.7 ± 0.1 µM | 
